In brackets after ≈: the same amount, converted by molar mass. Where a SMILES comes first, the peptide text is derived from it. [ ]: non-standard residue; d: D form.
What was measured:
[1] = test system: GBS WT and dltA strains; test: SYTOX green uptake assay (membrane perforation); assay type: cell-based, Streptococcus agalactiae; conditions: 30 min exposure, 1 µM SYTOX green, sodium phosphate buffer 20 mM pH 7.4, excitation 485 nm, emission 520 nm; triplicates
Text: To determine whether altered susceptibility to CAMPs correlates with changes in membrane permeability, we measured the entrance of the cationic dye SYTOX green into the WT and dltA strains. SYTOX green cannot enter intact bacteria unless the membrane is disrupted by external compounds. Upon penetration into bacteria and binding to intracellular nucleic acids, its signal increases drastically. A dose-dependent enhancement of signal intensity was found following exposure to selected CAMPs.
Figure 2 Susceptibility of GBS strains to perforation by CAMPs. Peptide-dependent influx of the vital dye SYTOX green following 30 min exposure of GBS to magainin 2 (A), LL-37 (B), 5D-K6L9 (C) and K5L7 (D). Solid lines represent the WT strain whereas dashed lines represent the dltA muatnt. All readings were normalized by subtracting the basal fluorescence of the dye. Data are means ± SD of triplicate measurements.
Bacteria were washed twice, resuspended in sodium phosphate buffer (SPB, 20 mM, pH 7.4), and incubated with 1 µM SYTOX green for 20 min in the dark with agitation. Bacteria were added to a 96 well black plate (Nunc, Denmark) containing increasing concentrations of CAMPs and the increase in fluorescence, due to penetration and binding of the dye to intracellular DNA, was immediately monitored (excitation of 485 nm and emission of 520 nm). […]

[2] = test system: GBS Δlgt Δlsp mutant; test: MIC90 by dilution method, GBS Δlgt Δlsp; assay type: cell-based, Streptococcus agalactiae; conditions: Todd-Hewitt broth with 100 mM HEPES, 2×10^6 CFU, 96-well polypropylene microplate, overnight 37°C, OD600 nm; average of triplicate measurements
Protocol: (§1) The MICs of each antimicrobial peptide were tested in Todd-Hewitt broth (THB) buffered with 100 mM HEPES in 96-well polypropylene microplates (Costar, Cambridge, MA) by a dilution method. Bacteria (2×10^6 CFU) were added in triplicates to wells containing increasing concentrations of the antimicrobial peptides. Plates were incubated at 37°C with shaking overnight and then read (OD600 nm) using microplate reader (Labsystems Multiskanat) for bacterial growth. The MICs90 was considered to be the peptide concentration that inhibited 90% growth.

[3] = test system: GBS ΔdltA mutant; test: MIC90 by dilution method, GBS ΔdltA; assay type: cell-based, Streptococcus agalactiae; conditions: Todd-Hewitt broth with 100 mM HEPES, 2×10^6 CFU, 96-well polypropylene microplate, overnight 37°C, OD600 nm; average of triplicate measurements
Protocol: as §1

[4] = test system: GBS ΔsrtA mutant; test: MIC90 by dilution method, GBS ΔsrtA; assay type: cell-based, Streptococcus agalactiae; conditions: Todd-Hewitt broth with 100 mM HEPES, 2×10^6 CFU, 96-well polypropylene microplate, overnight 37°C, OD600 nm; average of triplicate measurements
Protocol: as §1

[5] = RP-HPLC hydrophobicity (% AcN at elution); assay type: physicochemical; conditions: chromatographic, C4 reverse analytical column; eluted in 40 min, linear gradient of acetonitrile 30 to 70% v/v in water containing TFA (0.05% v/v)
Protocol: The procedure conducted as described previously. Briefly, peptides were synthesized using the Fmoc solid phase method on Rink amide resin ([…]). For fluorescent labeling of the N-terminus of the peptides, resin-bound peptides were treated with NBD or rhodamine dissolved in dimethyl formamide (DMF), washed thoroughly with DMF and then with methylene chloride, dried and then cleaved. […] The peptides were subjected to amino acid and mass spectrometry analysis to confirm their composition.

[6] = test system: GBS NEM316 WT strain; assay type: cell-based, Streptococcus agalactiae; conditions: Todd-Hewitt broth with 100 mM HEPES, 2×10^6 CFU, 96-well polypropylene microplate, overnight 37°C, OD600 nm; average of triplicate measurements
Protocol: as §1

[7] = test system: GBS ΔcpsD mutant; test: MIC90 by dilution method, GBS ΔcpsD; assay type: cell-based, Streptococcus agalactiae; conditions: Todd-Hewitt broth with 100 mM HEPES, 2×10^6 CFU, 96-well polypropylene microplate, overnight 37°C, OD600 nm; average of triplicate measurements
Protocol: as §1

[8] = test system: GBS ΔmprF mutant; test: MIC90 by dilution method, GBS ΔmprF; assay type: cell-based, Streptococcus agalactiae; conditions: Todd-Hewitt broth with 100 mM HEPES, 2×10^6 CFU, 96-well polypropylene microplate, overnight 37°C, OD600 nm; average of triplicate measurements
Protocol: as §1

## CC(C)C[C@H](NC(=O)[C@H](CC(C)C)NC(=O)[C@@H](CCCCN)NC(=O)[C@H](CC(C)C)NC(=O)[C@H](CC(C)C)NC(=O)[C@H](CCCCN)NC(=O)[C@@H](CCCCN)NC(=O)[C@@H](CC(C)C)NC(=O)[C@H](CC(C)C)NC(=O)[C@@H](CCCCN)NC(=O)[C@H](CCCCN)NC(=O)[C@H](CC(C)C)NC(=O)[C@@H](CC(C)C)NC(=O)[C@H](CCCCN)NC(=O)[C@@H](N)CC(C)C)C(N)=O [5D-K6L9] (H-LK[dL]LK[dK]L[dL][dK]KLL[dK]LL-NH2; N-terminus assumed)
[1]
  SYTOX green influx signal, dltA mutant compared to WT: similarly active on both strains
[2]
  MIC90, Δlgt Δlsp: 4.4 µM (≈ 7.94 µg/mL)
[3]
  MIC90, ΔdltA: 2.2 µM (≈ 3.97 µg/mL)
[4]
  MIC90, ΔsrtA: 4.4 µM (≈ 7.94 µg/mL)
[5]
  Hydrophobicity (% AcN): 55.6 % AcN
[6]
  MIC90, WT: 4.4 µM (≈ 7.94 µg/mL)
[7]
  MIC90, ΔcpsD: 4.4 µM (≈ 7.94 µg/mL)
[8]
  MIC90, ΔmprF: 4.4 µM (≈ 7.94 µg/mL)
